The values below come from patent US20250026733A1, “DEUTERATED ANALOGS OF PYROLE INHIBITORS OF ERK, SYNTHESIS THEREOF AND INTERMEDIATES THERETO” (BIOMED VALLEY DISCOVERIES, INC., priority 2022, published 2025).

One data set has as its system A375 cells. Put plainly: A375 proliferation assay (Cell TiterGlo). The class given is cell-based. Conditions: Homo sapiens, A-375, 72 hours. The protocol:
Mechanism of Action (MOA) Cell Assay—A375 Cell Proliferation, pERK/ERK and pRSK/RSK Analysis:
Briefly, A375 cells were plated at 10,000 cells/well in three 96 well plates. Plates were incubated overnight at 37° C. and allowed to recover. Cells were washed with 150 μL of DPBS and 90 μL of fresh media was added to each well. The cells were then treated with a dose response of the selected compounds. Compounds were diluted from stock concentrations (10 mM in DMSO). Serial dilutions were made in DMSO, yielding 8 total different concentrations per compound. At time of compound addition, the control plate was analyzed using Cell TiterGlo to set baseline for proliferation. Compound treated cells were allowed to grow at 37° C./5% CO2 for 72 hours then analyzed using Cell TiterGlo according to kit protocol.

The subject of data set [1] is phospho-ERK1/2 to total ERK1/2 in A375 cells. Briefly: A375 pERK/ERK dose response study (MSD). The note with it: Homo sapiens, A-375, ratio of phospho-ERK1/2 to total ERK1/2. The class given is cell-based. The procedure:
A375 pERK/ERK Dose Response Study:
Briefly, A375 cells were plated at 30,000 cells/well in 2×96 well plates, allowed to recover overnight, washed and fed fresh media the next day then treated with a dose response of the selected compounds. Following the determined pretreatment time with the compounds at 37° C./5% CO2, the media was aspirated, and cells lysed with cold, complete MESO Scale Discovery (MSD) lysis buffer. pERK and total ERK1/2 levels were measured using MESO Scale Discover Phospho(Thr202/Tyr204; Thr185/Tyr187)/Total ERK1/2 kits. The protocol and all reagents were provided in the kit. All wells were blocked with 150 μl Blocking Solution for one hour. […] of lysis buffer was added per well and incubated overnight at 4° C. Following the overnight incubation, the wells were washed three times with Tris Wash buffer, then […] of 1× Detection Antibody was added per well and incubated at room temperature for one hour with vigorous shaking. All wells were then washed three times with Tris Wash Buffer before 150 μl of 1× Read Buffer was added per well and the plates read using the MSD Sector Imager. Data were calculated as a ratio of phospho-ERK1/2 to total ERK1/2 to allow for normalization of the samples.

The next data set deals with pRSK/RSK in A375 cells. Put plainly: A375 pRSK/RSK dose response study (ELISA). Format: cell-based. The note with it: Homo sapiens, A-375, pRSK and total RSK ELISA. The protocol: A375 pRSK/RSK Dose Response Study
Briefly, A375 cells were plated at 30,000 cells/well in 2×96 well plates, allowed to recover overnight, washed and fed fresh media the next day then treated with a dose response of the selected compounds. Following the determined pretreatment with the compounds at 37° C./5% CO2 the media was aspirated, and cells lysed with cold, complete MSD lysis buffer. pRSK and total RSK were analyzed using CST/PathScan pRSK and total RSK ELISAS according to the respective kit protocols. All samples were analyzed at 90% of remaining sample in pRSK and 10% of remaining sample in total RSK ELISA, which was performed following kit protocols.

Data set [2] is described as follows: Pharmacokinetics and metabolite formation in rats. The class given is in vivo, rat. Conditions: for AUC(0-t) / half-life: both sexes. The procedure:
Ulixertinib, Formulas 18A, 19A, and 21A were dosed twice daily (12 hours apart, ±30 minutes) for five consecutive days (10 doses/animal) to rats via oral gavage (PO). Each compound was administered at a dose of 12.5 mg/kg to 6 rats (3 male/3 female, N=6 rats/compound). Each compound was formulated in 1% (w/v) carboxymethylcellulose (CMC) in water at a concentration of 1.25 mg/mL. Following the second (p.m.) dose on Day 5, blood samples were collected from each rat at approximately 0.5, 1, 2, 4, 6, 8, and 12 hours post-dose. Blood samples were centrifuged to obtain plasma. Plasma samples were analyzed for concentrations of the dosed compounds and selected metabolites using an established LC-MS/MS method. The lower limit of quantitation of each compound was 1.00 ng/mL. The rat half-life values (determined by non-compartmental analysis using WinNonlin software) for each compound are shown in Table 7, and the areas under curve from time 0 to hour 12 (AUC0-12), calculated using the linear trapezoidal rule, for each dosed compound and selected metabolites are presented in Table 8.

Data set [3] can be described thus: Steady-state exposure of ulixertinib and metabolites in rat. Format: in vivo. The text has this: (§1) The steady state exposure levels of non-isotopically enriched parent ulixertinib and related metabolites in rat (day 5) and human subjects (day 15) is provided in TABLE 1 below: […]
Data set [4] in a line: Steady-state exposure of ulixertinib and metabolites in human subjects. Format: in vivo.
Source text: as §1

Structures are written as SMILES. Where two headings read alike, the source gives them in different places. Marks after values point to notes of the source that are not given here.

`[2H]C([2H])([2H])C([2H])(Nc1cc(-c2c[nH]c(C(=O)N[C@H](CO)c3cccc(Cl)c3)c2)c(Cl)cn1)C([2H])([2H])[2H]` [Formula 18, 4-(5-chloro-2-((propan-2-yl-d7)amino)pyridin-4-yl)-N-(1-(3-chlorophenyl)-2-hydroxyethyl)-1H-pyrrole-2-carboxamide]: the values for the IC50 (in the data set with A375 cells; in data set [1]; in the data set on pRSK/RSK in A375 cells) were 300 nM, 70 nM and 40 nM, respectively.
Regarding `Cl.[2H]C(C)(C)Nc1cc(-c2c[nH]c(C(=O)N[C@H](CO)c3cccc(Cl)c3)c2)c(Cl)cn1` [Formula 21A], in data set [2] (rat, in vivo, po, 12.5 mg/kg), the AUC(0-t) was found to be 193 µg·h/mL and the half-life was 3.81 h. In data set [2] (both, rat, in vivo), the “AUC0-12 M2, percent change relative to Ulixertinib” value is listed as “(−17%^a)”; the “AUC0-12 M3, percent change relative to Ulixertinib” value was “(+8%^a)”; the “AUC0-12 M6, percent change relative to Ulixertinib” value was “(+7%^a)”; the “AUC0-12 Parent, percent change relative to Ulixertinib” value is listed as “(+12%^a)”. Besides, in data set [2] (both, rat, in vivo), the “Half-life, percent change relative to Ulixertinib” value was “(+4%^a)” and the “longer mean half-life than ulixertinib” value is listed as 4%.
As for `CC(C)Nc1cc(-c2c[nH]c(C(=O)N[C@H](CO)c3cccc(Cl)c3)c2)c(Cl)cn1` [Ulixertinib, reference compound], the “% of total Ulixertinib related exposure” value in data set [3] (day 5, steady state) amounted to 91.1%; in data set [4] (day 15, steady state), 37.5%. Besides, in data set [3] (in vivo, day 5, non-isotopically enriched ulixertinib and related metabolites, read-out: Steady-State AUC (Mean ± SD)), the AUC at 5 day is 179 ± 49 µg·h/mL. In addition, the AUC at 15 day in data set [4] (in vivo, day 15, non-isotopically enriched ulixertinib and related metabolites, read-out: Steady-State AUC (Mean ± SD)) was determined as 29.6 ± 16.1 µg·h/mL. The IC50 in the data set with A375 cells worked out at 250 nM; in data set [1], 58 nM; with pRSK/RSK in A375 cells, 37 nM. Besides, the AUC(0-t) in data set [2] (rat plasma, 12.5 mg/kg PO twice daily for five days, after second dose on Day 5, N=6, read-out: AUC0-12, Parent, Mean) is 173 µg·h/mL. Besides, in data set [2] (rat plasma, 12.5 mg/kg PO twice daily for five days, after second dose on Day 5, N=6, read-out: Half-life, t1/2, Mean (converted)), the half-life is 3.67 h.
